pIC50: −log10 of the molar value. Where a name gives a salt, the structure may show the parent alone.

Sequence of recombinant human PARP (P09874 whole entry): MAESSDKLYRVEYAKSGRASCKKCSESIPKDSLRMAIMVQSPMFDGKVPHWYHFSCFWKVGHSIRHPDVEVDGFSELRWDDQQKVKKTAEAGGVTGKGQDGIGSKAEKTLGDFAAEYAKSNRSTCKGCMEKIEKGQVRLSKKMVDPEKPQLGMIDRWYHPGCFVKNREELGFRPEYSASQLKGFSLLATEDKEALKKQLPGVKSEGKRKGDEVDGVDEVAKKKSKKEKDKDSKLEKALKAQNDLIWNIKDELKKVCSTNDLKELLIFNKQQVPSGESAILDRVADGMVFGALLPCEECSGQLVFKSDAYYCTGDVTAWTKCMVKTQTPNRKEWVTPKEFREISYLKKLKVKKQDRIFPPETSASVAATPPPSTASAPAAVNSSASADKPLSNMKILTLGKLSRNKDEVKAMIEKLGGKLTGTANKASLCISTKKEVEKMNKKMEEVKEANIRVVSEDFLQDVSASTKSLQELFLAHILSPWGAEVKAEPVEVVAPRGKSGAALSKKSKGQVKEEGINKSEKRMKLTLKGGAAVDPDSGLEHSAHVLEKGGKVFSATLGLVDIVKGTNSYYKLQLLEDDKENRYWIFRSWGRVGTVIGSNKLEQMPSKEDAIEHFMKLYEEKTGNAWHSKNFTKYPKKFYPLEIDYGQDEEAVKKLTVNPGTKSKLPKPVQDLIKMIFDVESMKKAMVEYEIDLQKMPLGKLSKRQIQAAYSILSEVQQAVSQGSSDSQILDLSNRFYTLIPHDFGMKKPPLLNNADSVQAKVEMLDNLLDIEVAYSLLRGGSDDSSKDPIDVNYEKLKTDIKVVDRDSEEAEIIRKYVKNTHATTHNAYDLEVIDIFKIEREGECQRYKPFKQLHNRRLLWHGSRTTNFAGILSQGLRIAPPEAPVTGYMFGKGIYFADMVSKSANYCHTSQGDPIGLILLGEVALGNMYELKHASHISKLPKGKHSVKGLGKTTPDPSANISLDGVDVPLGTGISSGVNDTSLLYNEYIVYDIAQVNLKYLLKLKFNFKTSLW

In one experiment the target is recombinant human PARP (Homo sapiens, UniProt P09874). The experiment in a line: Measurement of PARP enzymatic activity (transfer of radiolabeled ADP-ribose from NAD+ to protein acceptor). It is filed as biochemical. To be noted: 3 uM; Table 3. The protocol:
PARP activity was monitored by transfer of radiolabeled ADP-ribose units from [^32]NAD^+ to a protein acceptor such as histone or PARP itself. […] The reactions were initiated by the addition of 100 μM NAD^+ supplemented with 2 uCi [^32]NAD^+/mL and maintained at room temperature for 12 minutes. […] The amount of acid-insoluble radioactivity, corresponding to polyADP-ribosylated protein, was quantitated in a Wallac MicroBeta scintillation counter.
Single-point inhibition data were calculated by comparing PARP, VEGFR2, or MLK3 activity in the presence of inhibitor to activity in the presence of DMSO only. Inhibition curves for compounds were generated by plotting percent inhibition versus log10 of the concentration of compound. IC50 values were calculated by nonlinear regression using the sigmoidal dose-response (variable slope) equation in GraphPad Prism as follows: y=bottom+(top−bottom)/(1+10^(log IC50^−x)*Hillslope) where y is the % activity at a given concentration of compound, x is the logarithm of the concentration of compound, bottom is the % inhibition at the lowest compound concentration tested, and top is the % inhibition at the highest compound concentration examined. The values for bottom and top were fixed at 0 and 100, respectively. IC50 values were reported as the average of at least three separate determinations.
For some compounds, inhibiting data is presented as percent inhibition at a specified concentration. Compounds are tabulated together with compound number, substituents, and enzyme inhibition data.
For the compound `NCCCCC(N)C(=O)n1c2ccc(Br)cc2c2c3c(c4c(c21)CCC4)C(=O)NC3` [Compound 6i, 3-Bromo-11-L-lysyl-5,7,8,9,10,11-hexahydrocyclopent[a]pyrrolo[3,4-c]carbazole-7(6H)-one dihydrochloride], the “PARP percent inhibition @ 3 uM” value was “[35% @”.

The experiment is the same for the next values; noted with them: PARP IC50 (nM), Table 2.
For `O=C1NC(=O)c2c1c1c(c3[nH]c4ccc(-c5csc(CNC(=O)C6CC6)n5)cc4c23)CCC1` [Compound 3w], the IC50 stood at 49 nM.

Staying with this experiment, now noted: PARP IC50 (nM), Table 8.
As to `O=C(NCCCN1CCCC1=O)Oc1ccc2[nH]c3c4c(c5c(c3c2c1)C(=O)NC5=O)CCC4` [Compound 15e], the concentration for half-maximal inhibition (IC50) turned out to be 28 nM.

Turning to `O=C(NCCc1ccccn1)Oc1ccc2[nH]c3c4c(c5c(c3c2c1)C(=O)NC5=O)CCC4` [Compound 15m], the IC50 came out at 31 nM.

As to `O=C(NCCCn1ccnc1)Oc1ccc2[nH]c3c4c(c5c(c3c2c1)C(=O)NC5=O)CCC4` [Compound 15d], the IC50 amounted to 32 nM.

For `O=C(NN1CCOCC1)Oc1ccc2[nH]c3c4c(c5c(c3c2c1)C(=O)NC5=O)CCC4` [Compound 15k], the IC50 amounted to 20 nM.

Still in this experiment, the particulars now being: Table 1; read-out: PARP IC50.
As to `NCC(=O)N1C(=O)c2c3c(c4[nH]c5ccccc5c4c2C1=O)CCC3` [Compound 1m], the pIC50 is 7.42.

On to `NCCC(=O)N1C(=O)c2c3c(c4[nH]c5ccccc5c4c2C1=O)CCC3` [Compound 1l], for which the pIC50 was 6.80.

Take `CC(C)(C)OC(=O)NCCCC[C@H](NC(=O)OC(C)(C)C)C(=O)n1c2ccccc2c2c3c(c4c(c21)CCC4)C(=O)NC3` [Compound 1u, 11-[Bis(t-butoxycarbonyl)-L-lysyl]-5,7,8,9,10,11-hexahydrocyclopent[a]pyrrolo[3,4-c]carbazole-7(6H)-one]: the pIC50 is 5.82.

Still in this experiment, the particulars now being: Table 2; read-out: PARP IC50.
With `CC(C)(C)C(=O)OCc1nc(-c2ccc3[nH]c4c5c(c6c(c4c3c2)C(=O)NC6=O)CCC5)cs1` [Compound 3y], the pIC50 is 7.22.

Take `NC(=O)c1ccc2[nH]c3c4c(c5c(c3c2c1)C(=O)NC5=O)CCC4` [Compound 2bh]: the pIC50 was 7.51.

As for `CCN(CC)CC(=O)c1ccc2[nH]c3c4c(c5c(c3c2c1)C(=O)NC5=O)CCC4` [Compound 2j], the negative logarithm of the IC50 (pIC50) is 7.68.

Turning to `O=C1NC(=O)c2c1c1c(c3[nH]c4ccc(CN5CCOCC5)cc4c23)CCC1` [Compound 2bv], the pIC50 was 7.49.

Take `CCOCCOc1ccc2[nH]c3c4c(c5c(c3c2c1)C(=O)NC5=O)CCC4` [Compound 2aq]: the pIC50 is 7.23.

With `CCCCN(CCCC)Cc1ccc2[nH]c3c4c(c5c(c3c2c1)C(=O)NC5=O)CCC4` [Compound 2bn], the pIC50 is 7.55.

Take `CN(C)CCNC(=O)c1ccc2[nH]c3c4c(c5c(c3c2c1)C(=O)NC5=O)CCC4` [Compound 2cg]: the pIC50 is 7.51.

Regarding `CCCC(=O)NCc1ccc2[nH]c3c4c(c5c(c3c2c1)C(=O)NC5=O)CCC4` [Compound 2t, 3-(Butanoylaminomethyl)-5,7,8,9,10,11-hexahydrocyclopent[a]pyrrolo[3,4-c]carbazole-5(6H), 7-dione], the negative-log IC50 (pIC50) was 7.36.

Turning to `COC(=O)CCCC(=O)NCc1ccc2[nH]c3c4c(c5c(c3c2c1)C(=O)NC5=O)CCC4` [Compound 2aa, 3-(N-(4-(Methoxycarbonyl)butanoyl)aminomethyl)-5,7,8,9,10,11-hexahydrocyclopent[a]pyrrolo[3,4-c]carbazole-5(6H), 7-dione], the pIC50 was 8.05.

In the case of `O=C(NCc1ccc2[nH]c3c4c(c5c(c3c2c1)C(=O)NC5=O)CCC4)c1ccccc1` [Compound 2u, 3-(Benzoylaminomethyl)-5,7,8,9,10,11-hexahydrocyclopent[a]pyrrolo[3,4-c]carbazole-5(6H), 7-dione], the pIC50 is 7.43.

As to `CN(C)CC(=O)OCc1ccc2[nH]c3c4c(c5c(c3c2c1)C(=O)NC5=O)CCC4` [Compound 2bg], the pIC50 was 7.51.

On to `CN(Cc1ccncc1)C(=O)c1ccc2[nH]c3c4c(c5c(c3c2c1)C(=O)NC5=O)CCC4` [Compound 2cx], for which the pIC50 is 8.00.

For `NC(N)=Nc1nc(-c2ccc3[nH]c4c5c(c6c(c4c3c2)C(=O)NC6=O)CCC5)cs1` [Compound 3g], the pIC50 was 7.72.

In the case of `Cc1ccc2[nH]c3c4c(c5c(c3c2c1)C(=O)NC5=O)CCC4` [Compound 2bf], the pIC50 was 7.09.

Take `CCNC(=O)NCc1nc(-c2ccc3[nH]c4c5c(c6c(c4c3c2)C(=O)NC6=O)CCC5)cs1` [Compound 3o]: the pIC50 was 7.70.

On to `CC(C)(C)OC(=O)[C@@H]1CCCN1CC(=O)c1ccc2[nH]c3c4c(c5c(c3c2c1)C(=O)NC5=O)CCC4` [Compound 4b], for which the pIC50 was 7.92.

Regarding `O=CNCc1ccc2[nH]c3c4c(c5c(c3c2c1)C(=O)NC5=O)CCC4` [Compound 2ce], the pIC50 was 7.47.

Take `O=C1NC(=O)c2c1c1c(c3[nH]c4ccc(-c5csc(NC6OC(CO)C(O)C(O)C6O)n5)cc4c23)CCC1` (stereo not drawn) [Compound 3ab]: the pIC50 was 7.77.

In the case of `CC(C)(C)S(=O)(=O)Cc1nc(-c2ccc3[nH]c4c5c(c6c(c4c3c2)C(=O)NC6=O)CCC5)cs1` [Compound 3p], the pIC50 is 7.68.

`CC(C)(C)OC(=O)NCCCC(=O)NCc1ccc2[nH]c3c4c(c5c(c3c2c1)C(=O)NC5=O)CCC4` [Compound 2w, 3-(N-(4-(N-Boc-amino)butanoyl)aminomethyl)-5,7,8,9,10,11-hexahydrocyclopent[a]pyrrolo[3,4-c]carbazole-5(6H), 7-dione]: the pIC50 is 7.48.

Regarding `N#CCc1ccc2[nH]c3c4c(c5c(c3c2c1)C(=O)NC5=O)CCC4` [Compound 2bc], the pIC50 is 7.62.

Regarding `O=C1NC(=O)c2c1c1c(c3[nH]c4ccc(CNCc5ccccc5)cc4c23)CCC1` [Compound 2bq], the pIC50 is 7.59.

As for `CC(=O)Nc1nc(-c2ccc3[nH]c4c5c(c6c(c4c3c2)C(=O)NC6=O)CCC5)c[nH]1` [Compound 3l], the pIC50 is 7.33.

In the case of `CN(C)Cc1ccc2[nH]c3c4c(c5c(c3c2c1)C(=O)NC5=O)CCC4` [Compound 2bj], the pIC50 is 7.54.

On to `O=C(O)C(=O)c1ccc2[nH]c3c4c(c5c(c3c2c1)C(=O)NC5=O)CCC4` [Compound 2bb], for which the pIC50 is 8.30.

For the compound `CC(C)(C)OC(=O)NCCNC(=O)CCC(=O)c1ccc2[nH]c3c4c(c5c(c3c2c1)C(=O)NC5=O)CCC4` [Compound 4d], the pIC50 is 7.80.

On to `O=C(Cn1cnnn1)NCc1ccc2[nH]c3c4c(c5c(c3c2c1)C(=O)NC5=O)CCC4` [Compound 2by], for which the pIC50 is 7.85.

As to `Cc1nc(-c2ccc3[nH]c4c5c(c6c(c4c3c2)C(=O)NC6=O)CCC5)c(Br)s1` [Compound 3c], the pIC50 is 7.08.

In the case of `O=C(O)CCCC(=O)NCc1ccc2[nH]c3c4c(c5c(c3c2c1)C(=O)NC5=O)CCC4` [Compound 2ac, 3-(N-(4-(Carboxy)butanoyl)aminomethyl)-5,7,8,9,10,11-hexahydrocyclopent[a]-pyrrolo[3,4-c]carbazole-5(6H), 7-dione], the pIC50 was 7.32.

As for `COC(=O)C1CCCN1CC(=O)c1ccc2[nH]c3c4c(c5c(c3c2c1)C(=O)NC5=O)CCC4` (stereo not drawn) [Compound 4a], the negative-log IC50 (pIC50) is 7.92.

As for `O=C1NC(=O)c2c1c1c(c3[nH]c4ccc(CNCc5ccc6[nH]c7c8c(c9c(c7c6c5)C(=O)NC9=O)CCC8)cc4c23)CCC1` [Compound 2q, Bis-[5(6H), 7-dioxo-5,7,8,9,10,11-hexahydrocyclopent[a]pyrrolo[3,4-c]carbazol-3-ylmethyl]amine hydrochloride], the negative-log IC50 (pIC50) is 6.78.

Regarding `CC(=O)Nc1nc(-c2ccc3[nH]c4c5c(c6c(c4c3c2)C(=O)NC6=O)CCC5)cs1` [Compound 3i], the pIC50 was 7.27.

Regarding `O=CNCc1ccc2[nH]c3c4c(c5c(c3c2c1)C(O)NC5=O)CCC4` (stereo not drawn) [Compound 2cf], the pIC50 was 6.91.

Consider `O=C1NC(=O)c2c1c1c(c3[nH]c4ccc(CN5CCCC5)cc4c23)CCC1` [Compound 2bw], for which the pIC50 is 7.46.

`O=C1NC(=O)c2c1c1c(c3[nH]c4ccc(Br)cc4c23)CCC1` [Compound 2a]: the pIC50 was 7.60.

For the compound `O=C(NCc1ccncc1)c1ccc2[nH]c3c4c(c5c(c3c2c1)C(=O)NC5=O)CCC4` [Compound 2ci], the pIC50 was 7.89.

For the compound `CCC(=O)NCc1nc(-c2ccc3[nH]c4c5c(c6c(c4c3c2)C(=O)NC6=O)CCC5)cs1` [Compound 3s], the pIC50 was 7.25.

Take `O=C(NCc1cccnc1)c1ccc2[nH]c3c4c(c5c(c3c2c1)C(=O)NC5=O)CCC4` [Compound 2cl]: the pIC50 was 7.68.

The same experiment, now with this note: Table 18; read-out: PARP IC50.
Take `COc1cccc2[nH]c3c4c(c5c(c3c12)C(=O)N(CN1CCN(C)CC1)C5=O)CCC4` [Compound 16e]: the negative logarithm of the IC50 (pIC50) is 7.85.

With `O=C1NC(=O)c2c1c1c(c3[nH]c4nccc(Cl)c4c23)CCC1` [Compound 8z], the pIC50 was 8.05.

For the compound `COc1cc[n+]([O-])c2[nH]c3c4c(c5c(c3c12)C(=O)NC5=O)CCC4` [Compound 8m], the pIC50 is 7.77.

With `O=C1NC(=O)c2c1c1c(c3[nH]c4cccc(OCCN5CCOCC5)c4c23)CCC1` [Compound 14d], the pIC50 is 6.36.

On to `COc1ccnc2[nH]c3c4c(c5c(c3c12)C(=O)NC5=O)CCC4` [Compound 8x], for which the pIC50 is 8.40.

With `O=C1NC(=O)c2c1c1c(c3[nH]c4nc(O)ccc4c23)CCC1` [Compound 8n], the pIC50 was 8.22.

`COc1ccc2[nH]c3c4c(c5c(c3c2c1OC)C(=O)NC5=O)CCC4` [Compound 14l]: the pIC50 is 7.68.
